Measurements reported in patent US20070276011A1, “Plasminogen Activator Inhibitor-1 Inhibitor” (priority 2003, published 2007).

Target: recombinant human PAI-1 (Homo sapiens, UniProt P05121)
Assay: PAI-1 inhibitory activity, Test Method A (tPA fluorogenic substrate, Tris buffer pH8.0, 37 C)
Assay type: biochemical
Conditions: 25 μM test compound; Test Method A

Chain of recombinant human PAI-1 (P05121 24-402): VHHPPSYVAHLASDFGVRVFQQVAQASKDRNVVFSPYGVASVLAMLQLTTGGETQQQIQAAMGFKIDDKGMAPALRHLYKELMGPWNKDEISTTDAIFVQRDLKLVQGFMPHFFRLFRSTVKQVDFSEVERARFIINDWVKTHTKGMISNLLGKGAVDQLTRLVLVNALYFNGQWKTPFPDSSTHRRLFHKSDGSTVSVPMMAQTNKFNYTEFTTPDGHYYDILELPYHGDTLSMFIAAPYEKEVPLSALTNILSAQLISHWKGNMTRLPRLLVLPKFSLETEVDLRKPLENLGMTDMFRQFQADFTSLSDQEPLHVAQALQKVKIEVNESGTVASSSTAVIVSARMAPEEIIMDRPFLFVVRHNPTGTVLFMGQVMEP

Row | SMILES | Inhibitory Ratio at 25 μM (%)
1 | O=C1C(=Cc2ccc(O)c(O)c2)SC(=S)N1Cc1ccc(C=Cc2ccccc2)cc1 [compound 306, 5-(3,4-Dihydroxybenzylidene)-3-(4-styrylbenzyl)rhodanine] | >99%
2 | O=C(Nc1cccc([N+](=O)[O-])c1)c1cc(C=C2SC(=O)N(Cc3ccc(Cl)c(Cl)c3)C2=O)ccc1O [compound 424] | 87%
3 | CC(C)C1=NN(c2ccc(Cl)c(Cl)c2)C(=O)C1=Cc1cc(Oc2ccc(Br)cc2)ccc1[N+](=O)[O-] [Compound No. 562, 4-[2-Nitro-5-(4-bromophenoxy)benzylidene]-1-(3,4-dichlorophenyl)-3-isopropyl-2-pyrazolin-5-one] | >99%
4 | O=C(Nc1cc(C=C2SC(=O)N(Cc3ccc(Cl)c(Cl)c3)C2=O)ccc1O)c1ccc(OC(F)(F)F)cc1 [compound 365] | >99%
5 | O=C1SC(=Cc2cccc(Oc3ccccc3)c2)C(=O)N1Cc1cc(O)c(O)c(O)c1 [compound 310, 5-(3-Phenoxybenzylidene)-3-(3,4,5-trihydroxybenzyl)thiazolidine-2,4-dione] | >99%
6 | CC(C)C1=NN(c2ccc(C=Cc3ccccn3)cc2)C(=O)C1=Cc1cc(C=Cc2ccccc2)ccc1O [compound 544, 4-(2-Hydroxy-5-styrylbenzylidene)-1-{4-[2-(pyridin-2-yl)vinyl]phenyl}-3-isopropyl-2-pyrazolin-5-one] | 41%
7 | COCC1=NN(c2cc(Cl)cc(Cl)c2)C(=O)C1=Cc1cc(O)c(O)cc1O [compound 522] | >99%
8 | CCOC1=NN(c2ccc([N+](=O)[O-])cc2)C(=O)C1=Cc1cc(C=Cc2ccccc2)ccc1O [compound 541, 4-(2-hydroxy-5-styrylbenzylidene)-1-(4-nitrophenyl)-3-ethoxy-2-pyrazolin-5-one] | >99%
9 | COc1cc(C=C2SC(=O)N(Cc3ccc(Cl)c(Cl)c3)C2=O)cc(C(=O)Nc2cc(C(F)(F)F)cc(C(F)(F)F)c2)c1O [compound 438] | >99%
10 | COc1cc(C=C2C(=O)N(c3ccc(Cl)c(Cl)c3)N=C2C(C)C)cc([N+](=O)[O-])c1O [compound 561] | 91%
11 | CC(C)C1=NN(c2ccc(C(=O)O)cc2)C(=O)C1=Cc1cc(C=Cc2ccccc2)ccc1O [compound 534] | 64%
12 | COc1cc(C=C2SC(=O)N(Cc3ccc(Cl)c(Cl)c3)C2=O)cc(C(=O)Nc2cc(C(F)(F)F)ccc2Cl)c1O [compound 439] | 89%
13 | COc1cc(NC(=O)c2cc(C=C3SC(=O)N(Cc4ccc(Cl)c(Cl)c4)C3=O)ccc2O)cc(OC)c1OC [compound 433, 5-[4-hydroxy-3-(3,4,5-trimethoxyphenylcarbamoyl)benzylidene]-3-(3,4-dichlorobenzyl)thiazolidine-2,4-dione] | >99%
14 | O=C1SC(=Cc2cccc(O)c2O)C(=O)N1Cc1ccc(Nc2ccccc2)cc1 [compound 309] | >99%
15 | Cc1cc(C=C2SC(=O)N(Cc3ccc(Cl)c(Cl)c3)C2=O)cc(C(=O)O)c1O [compound 390, 5-(3-Methyl-4-hydroxy-5-carboxybenzylidene)-3-(3,4-dichlorobenzyl)thiazolidine-2,4-dione] | >99%
16 | O=C(Nc1ccc(O)c(O)c1)c1cc(C=C2SC(=O)N(Cc3ccc(-c4ccccc4)cc3)C2=O)ccc1O [compound 373] | 93%
17 | COC(=O)c1ccc(CN2C(=O)SC(=Cc3ccc(O)c(C(=O)Nc4ccc(Cl)c(Cl)c4)c3)C2=O)cc1 [compound 415, 5-[4-hydroxy-3-(3,4-dichlorophenylcarbamoyl)benzylidene]-3-(4-methoxycarbonylbenzyl)thiazolidine-2,4-dione] | >99%
18 | O=C(Nc1cc(C(F)(F)F)ccc1[N+](=O)[O-])c1cc(C=C2SC(=O)N(Cc3ccc(Cl)c(Cl)c3)C2=O)ccc1O [compound 466] | >99%
19 | COc1ccc(C=Cc2ccccc2)cc1C=C1C(=O)N(c2ccc([N+](=O)[O-])cc2)N=C1C(C)C [compound 532, 4-(2-Methoxy-5-styrylbenzylidene)-1-(4-nitrophenyl)-3-isopropyl-2-pyrazolin-5-one] | 78%
20 | O=C(O)c1cc(C=C2SC(=O)N(Cc3ccc(Cl)c(Cl)c3)C2=O)cc(O)c1O [compound 464, 5-(3,4-dihydroxy-5-carboxybenzylidene)-3-(3,4-dichlorobenzyl)-thiazolidine-2,4-dione] | >99%
21 | O=C(OCc1ccccc1)c1cc(C=C2SC(=O)N(Cc3ccc(Cl)c(Cl)c3)C2=O)cc(-c2ccccc2)c1O [compound 426, 5-[3-Phenyl-4-hydroxy-5-(benzyloxycarbonyl)benzylidene]-3-(3,4-dichlorobenzyl)thiazolidine-2,4-dione] | 91%
22 | COC(=O)c1ccc(NC(=O)c2cc(C=C3SC(=O)N(Cc4ccc(Cl)c(Cl)c4)C3=O)ccc2O)cc1 [compound 416, 5-{4-hydroxy-3-[4-(methoxycarbonyl)phenylcarbamoyl]benzylidene}-3-(3,4-dichlorobenzyl)thiazolidine-2,4-dione] | 73%
23 | O=C(Nc1ccc(O)c(O)c1)c1cc(C=C2SC(=O)N(Cc3ccc([N+](=O)[O-])cc3)C2=O)ccc1O [compound 378] | 86%
24 | COc1ccc(NC(=O)c2cc(C=C3SC(=O)N(Cc4ccc(Cl)c(Cl)c4)C3=O)cc(OC)c2O)cc1C(F)(F)F [compound 360] | >99%

Same assay, conditions: test compound 25 μM; Test Method A

Row | SMILES | Inhibitory Ratio at 25 μM (%)
25 | O=C1SC(=Cc2cccc(O)c2O)C(=O)N1Cc1cc(Cl)cc(Cl)c1 [compound 11, 5-(2,3-Dihydroxybenzylidene)-3-(3,5-dichlorobenzyl)thiazolidine-2,4-dione] | >99%
26 | O=C(O)c1cccc(N2N=C(c3ccccc3)C(=Cc3ccccc3)C2=O)c1 [compound 175] | 35%
27 | O=C1C(=Cc2cc(O)c(O)cc2O)C(C(F)(F)F)=NN1c1cc(Cl)cc(Cl)c1 [compound 151] | >99%
28 | CCOC1=NN(c2ccc([N+](=O)[O-])cc2)C(=O)C1=Cc1ccc(C(=O)OC)cc1 [compound 214] | 29%
29 | COC(=O)c1cccc(C=C2C(=O)N(c3cc(Cl)cc(Cl)c3)N=C2C(C)C)c1 [compound 204, 4-[3-(methoxycarbonyl)benzylidene]-1-(3,5-dichlorophenyl)-3-isopropyl-2-pyrazolin-5-one] | >99%
30 | O=C1C(=Cc2cc(O)c(O)c(O)c2)C(c2ccccc2)=NN1c1ccc(Cl)c(Cl)c1 [compound 146] | >99%
31 | O=C1C(=Cc2ccc(O)c(O)c2)C(C(F)(F)F)=NN1c1cccc([N+](=O)[O-])c1 [compound 137] | >99%
32 | COC(=O)c1cccc(N2N=C(C(F)(F)F)C(=Cc3ccc(-c4cc(C(F)(F)F)cc(C(F)(F)F)c4)o3)C2=O)c1 [compound 177, 4-({5-[3,5-Bis(trifluoromethyl)phenyl]furan-2-yl}methylene)-1-(3-methoxycarbonylphenyl)-3-trifluoromethyl-2-pyrazolin-5-one] | 86%
33 | COC(=O)c1cccc(N2N=C(C(C)C)C(=Cc3ccc(Cl)c(Cl)c3)C2=O)c1 [compound 210] | 49%
34 | CC1=NN(c2cccc(C(=O)O)c2)C(=O)C1=Cc1cc(Br)ccc1OCc1ccccc1 [compound 173] | 66%
35 | Cc1ccc(N2N=C(C(C)C)C(=Cc3cccc(O)c3)C2=O)cc1Cl [compound 121] | 80%
36 | O=C1C(=Cc2ccc(Br)o2)C(C(F)(F)F)=NN1c1cccc([N+](=O)[O-])c1 [compound 195] | 30%
37 | COC(=O)c1cccc(N2N=C(C(F)(F)F)C(=Cc3ccc(-c4cc(Cl)cc(Cl)c4)o3)C2=O)c1 [compound 166, 4-{[5-(3,5-Dichlorophenyl)furan-2-yl]methylene}-1-[3-(methoxycarbonyl)phenyl]-3-trifluoromethyl-2-pyrazolin-5-one] | >99%
38 | CC1=NN(c2ccc(Cl)c(Cl)c2)C(=O)C1=Cc1ccc(O)c(O)c1 [compound 152] | 89%
39 | CC(C)C1=NN(c2ccc(Cl)nc2)C(=O)C1=Cc1cc(O)c(O)cc1O [compound 222, 4-(2,4,5-Trihydroxybenzylidene)-1-(2-chloropyridin-5-yl)-3-isopropyl-2-pyrazolin-5-one] | 79%
40 | CC1=NN(c2cccc(Cl)c2)C(=O)C1=Cc1cc(O)c(O)c(O)c1 [compound 123] | 67%
41 | O=C1C(=Cc2ccc(-c3cc(Cl)cc(Cl)c3)o2)C(C(F)(F)F)=NN1c1cccc([N+](=O)[O-])c1 [compound 182] | 90%
42 | CC(C)C1=NN(c2cc(Cl)cc(Cl)c2)C(=O)C1=Cc1cc(Br)cc(Br)c1O [compound 105] | >99%
43 | O=C1SC(=Cc2cccc(O)c2O)C(=O)N1Cc1ccc(Cl)c(Cl)c1 [compound 8, 5-(2,3-Dihydroxybenzylidene)-3-(3,4-dichlorobenzyl)thiazolidine-2,4-dione] | >99%
44 | CC1=NN(c2cc(Cl)cc(Cl)c2)C(=O)C1=Cc1cc(O)c(O)c(O)c1 [compound 143] | >99%
45 | O=C1SC(=Cc2ccc(O)c(O)c2)C(=O)N1Cc1ccc(C(F)(F)F)cc1 [compound 44] | >99%
46 | O=C1SC(=Cc2ccc(O)c(O)c2)C(=O)N1Cc1cccc(Cl)c1Cl [compound 19] | >99%
47 | O=C1SC(=Cc2cccc(O)c2O)C(=O)N1Cc1cc(F)cc(F)c1 [compound 24, 5-(2,3-Dihydroxybenzylidene)-3-(3,5-difluorobenzyl)thiazolidine-2,4-dione] | >99%
48 | CC(C)C1=NN(c2cc(Cl)cc(Cl)c2)C(=O)C1=Cc1cc(O)c(O)c(O)c1 [compound 130] | >99%
49 | CC(C)(C)c1cc(CN2C(=O)SC(=Cc3cccc(O)c3O)C2=O)cc(C(C)(C)C)c1O [compound 13, 5-(2,3-Dihydroxybenzylidene)-3-[3,5-di(tert-butyl)-4-hydroxybenzyl]-thiazolidine-2,4-dione] | >99%
50 | CC1=NN(c2ccc(Cl)c(Cl)c2)C(=O)C1=Cc1cc(Br)ccc1O [compound 102] | 63%
